Broadly, the amount remaining is what is left of the initial amount, in per cent. Read a high amount remaining as greater stability.

The values below come from patent EP0326418A1, “GRF analogs” (THE UPJOHN COMPANY, priority 1988, dated 1989).

The subject of series [1] is bovine anterior pituitary cell culture. The format is cell-based. The following applies: for potency (in words): summary of the bovine pituitary cell culture assays.
Another series concerns meal-fed Holstein steers. Briefly: serum growth hormone (GH) response after intravenous injection in steers (Procedure B). The format is in vivo. The note with it: for serum growth hormone (GH) response, difference from Leu²⁷ bGRF(1-32)NH₂: compared with Leu²⁷ bGRF(1-32)NH₂; for area under the GH response curve: in comparison to bGRF(1-44)NH₂ (100%), first study; for relative growth hormone areas: in comparison to the standard bGRF(1-44)NH₂ (Area 100%), procedure B, second study. The text has this:
The synthetic peptides prepared in Examples 1, 2 and 3 (Compounds 1, 2 and 3 respectively), bGRF(1-44)NH2 and […] bGRF(1-32)NH2 were also given to meal-fed Holstein steers by intravenous injection (Procedure B) and the serum growth hormone (GH) response evaluated. […] In comparison to bGRF(1-44)NH2 (100%), the area under the GH response curve was 122% for […] bGRF(1-32)NH2, 100% for Compound #1, 106% for Compound #2, and 111% for Compound #3. Holstein steers (265 +/- 5kg) were housed in individual stalls 18-20°C) and exposed to 16h light:8h darkness (lights on at 0400h). Steers are meal-fed once daily at 1000h and trained to consume their total daily feed intake in 2 h. The diet consisted of rolled corn plus a mineral/vitamin premix and alfalfa hay cubes fed at 160% maintenance energy requirements on a bodyweight basis. Steers gained approximately 0.75 kg/h/d. In a 5 x […] Latin Square design 10 steers were assigned randomly to receive the following treatments. (a) bGRF(1-44)NH2, (b) […] bGRF(1-32)NH2, (c) Compound #3, (d) Compound #1, and (e) Compound #2. The GRFs were dissolves in saline (10μg/ml) and administered at 3nM/100 kg bodyweight as single iv injection at 0800 h, 2 h between feeding. A cannula was inserted into a jugular vein at least one day before treatment. Blood (6 ml) was collected at 20-min interval from 40 min before until 120 min after injection with additional samples collected at 5, 10 and 15 min after injection. Serum obtained from the samples was assayed from GH concentration. The number of steers responding to injection fo the various GRFs tested (P=0.42) ranged from 9 of 10 to 10 of 10 depending on the treatment. Using procedure B, compounds were tested for growth hormone release in steers. In comparison to the standard bGRF(1-44)NH2 (Area 100%), the test compounds gave the following relative growth hormone areas: Compound 4, 233%; compound 5, 140%; compound 6, 160%; compound 7, 126%; compound 8, 307%; compound 9, 260%; and compound 11, 173%.

Series [2] can be described thus: proteolytic stability in bovine plasma (HPLC, modified Frohman method). The note with it: for remaining at 1 h: bovine plasma; for proteolytic stability in bovine plasma (in words): summary.
The mark [3] stands for this setting: first assay, potency as a fraction of bGRF(1-44)NH₂.
[4] abbreviates: subsequent assay, potency as a fraction of bGRF(1-44)NH₂.
Setting [5] is: 3nM/100 kg bodyweight, single iv injection.

Where two headings read alike, the source gives them in different places. Where a SMILES comes first, the peptide text is derived from it. Where no end group is shown, it is not given here. [ ]: non-standard residue; d: D form. The star is where a group is joined. Desaminotyrosyl = O=C(CCc1ccc(O)cc1)*; Cya = N[C@@H](CS(=O)(=O)O)C(=O)O

As to `CC[C@H](C)[C@H](NC(=O)[C@H](C)NC(=O)[C@H](CS(=O)(=O)O)NC(=O)[C@H](C)NC(=O)[C@@H](N)Cc1ccc(O)cc1)C(=O)N[C@@H](Cc1ccccc1)C(=O)N[C@H](C(=O)N[C@@H](CC(N)=O)C(=O)N[C@@H](CO)C(=O)N[C@@H](Cc1ccc(O)cc1)C(=O)N[C@@H](CCCNC(=N)N)C(=O)N[C@@H](CCCCN)C(=O)N[C@H](C(=O)N[C@@H](CC(C)C)C(=O)NCC(=O)N[C@@H](CCC(N)=O)C(=O)N[C@@H](CC(C)C)C(=O)N[C@@H](CO)C(=O)N[C@@H](C)C(=O)N[C@@H](CCCNC(=N)N)C(=O)N[C@@H](CCCCN)C(=O)N[C@@H](CC(C)C)C(=O)N[C@@H](CC(C)C)C(=O)N[C@@H](CCC(N)=O)C(=O)N[C@@H](CC(=O)O)C(=O)N[C@H](C(=O)N[C@@H](CC(C)C)C(=O)N[C@@H](CC(N)=O)C(=O)N[C@@H](CCCNC(=N)N)C(=O)N[C@@H](CCC(N)=O)C(=O)N[C@@H](CCC(N)=O)C(=O)NCC(N)=O)[C@@H](C)CC)C(C)C)[C@@H](C)O` [Compound 3, Cya³, Leu ²⁷bGRF(1-32)NH₂] (H-YA[Cya]AIFTNSYRKVLGQLSARKLLQDILNRQQG-NH2), the figures for the “the potency of bGRF(1-44)NH₂” value in series [1] (setting [3]) and in series [1] (setting [4]) were 0.31 and 0.41, respectively. Further, in the series with meal-fed Holstein steers (setting [5]), the “serum growth hormone (GH) response, difference from Leu²⁷ bGRF(1-32)NH₂” value is “No significant differences”. Also, in the series on meal-fed Holstein steers (setting [5]), the “area under the GH response curve” value stood at 111%. In addition, in series [2], the amount remaining at 1 h is 42%.
With `CC[C@H](C)[C@H](NC(=O)[C@H](C)NC(=O)[C@H](CS(=O)(=O)O)NC(=O)[C@@H](C)NC(=O)[C@@H](N)Cc1ccc(O)cc1)C(=O)N[C@@H](Cc1ccccc1)C(=O)N[C@H](C(=O)N[C@@H](CC(N)=O)C(=O)N[C@@H](CO)C(=O)N[C@@H](Cc1ccc(O)cc1)C(=O)N[C@@H](CCCNC(=N)N)C(=O)N[C@@H](CCCCN)C(=O)N[C@H](C(=O)N[C@@H](CC(C)C)C(=O)NCC(=O)N[C@@H](CCC(N)=O)C(=O)N[C@@H](CC(C)C)C(=O)N[C@@H](CO)C(=O)N[C@@H](C)C(=O)N[C@@H](CCCNC(=N)N)C(=O)N[C@@H](CCCCN)C(=O)N[C@@H](CC(C)C)C(=O)N[C@@H](CC(C)C)C(=O)N[C@@H](CCC(N)=O)C(=O)N[C@@H](CC(=O)O)C(=O)N[C@H](C(=O)N[C@@H](CC(C)C)C(=O)N[C@@H](CC(N)=O)C(=O)N[C@@H](CCCNC(=N)N)C(=O)N[C@@H](CCC(N)=O)C(=O)N[C@@H](CCC(N)=O)C(=O)NCC(N)=O)[C@@H](C)CC)C(C)C)[C@@H](C)O` [Compound 4, D-Ala², Cya³, Leu²⁷-bGRF(1-32)NH₂] (H-Y[dA][Cya]AIFTNSYRKVLGQLSARKLLQDILNRQQG-NH2), the “the potency of bGRF(1-44)NH₂” value in series [1] came out at 0.29. The “relative growth hormone areas” value in the series with meal-fed Holstein steers is 233%. For the same compound, the fraction remaining at 1 h in series [2] was 76%.
As to `CC[C@H](C)[C@H](NC(=O)[C@H](C)NC(=O)[C@H](CS(=O)(=O)O)NC(=O)[C@@H](C)NC(=O)[C@@H](N)Cc1c[nH]cn1)C(=O)N[C@@H](Cc1ccccc1)C(=O)N[C@H](C(=O)N[C@@H](CC(N)=O)C(=O)N[C@@H](CO)C(=O)N[C@@H](Cc1ccc(O)cc1)C(=O)N[C@@H](CCCNC(=N)N)C(=O)N[C@@H](CCCCN)C(=O)N[C@H](C(=O)N[C@@H](CC(C)C)C(=O)NCC(=O)N[C@@H](CCC(N)=O)C(=O)N[C@@H](CC(C)C)C(=O)N[C@@H](CO)C(=O)N[C@@H](C)C(=O)N[C@@H](CCCNC(=N)N)C(=O)N[C@@H](CCCCN)C(=O)N[C@@H](CC(C)C)C(=O)N[C@@H](CC(C)C)C(=O)N[C@@H](CCC(N)=O)C(=O)N[C@@H](CC(=O)O)C(=O)N[C@H](C(=O)N[C@@H](CC(C)C)C(=O)N[C@@H](CC(N)=O)C(=O)N[C@@H](CCCNC(=N)N)C(=O)N[C@@H](CCC(N)=O)C(=O)N[C@@H](CCC(N)=O)C(=O)NCC(N)=O)[C@@H](C)CC)C(C)C)[C@@H](C)O` [Compound 7, His¹, D-Ala², Cya³, Leu²⁷-bGRF(1-32)NH₂] (H-H[dA][Cya]AIFTNSYRKVLGQLSARKLLQDILNRQQG-NH2), in series [1], the “the potency of bGRF(1-44)NH₂” value was 0.06. In the series on meal-fed Holstein steers, the “relative growth hormone areas” value came out at 126%. The same compound had a share remaining at 1 h in series [2] of 69%.
Turning to `CC[C@H](C)[C@H](NC(=O)[C@H](C)NC(=O)[C@H](CS(=O)(=O)O)NC(=O)[C@@H](C)NC(=O)[C@@H](N)Cc1ccc(O)cc1)C(=O)N[C@@H](Cc1ccccc1)C(=O)N[C@H](C(=O)N[C@@H](CC(N)=O)C(=O)N[C@@H](CO)C(=O)N[C@@H](Cc1ccc(O)cc1)C(=O)N[C@@H](CCCNC(=N)N)C(=O)N[C@@H](CCCCN)C(=O)N[C@H](C(=O)N[C@@H](CC(C)C)C(=O)N[C@@H](C)C(=O)N[C@@H](CCC(N)=O)C(=O)N[C@@H](CC(C)C)C(=O)N[C@@H](CO)C(=O)N[C@@H](C)C(=O)N[C@@H](CCCNC(=N)N)C(=O)N[C@@H](CCCCN)C(=O)N[C@@H](CC(C)C)C(=O)N[C@@H](CC(C)C)C(=O)N[C@@H](CCC(N)=O)C(=O)N[C@@H](CC(=O)O)C(=O)N[C@H](C(=O)N[C@@H](CC(C)C)C(=O)N[C@@H](CC(N)=O)C(=O)N[C@@H](CCCNC(=N)N)C(=O)N[C@@H](CCC(N)=O)C(=O)N[C@@H](CCC(N)=O)C(=O)NCC(N)=O)[C@@H](C)CC)C(C)C)[C@@H](C)O` [Compound 8, D-Ala², Cya³, Ala¹⁵, Leu²⁷-bGRF(1-32)NH₂] (H-Y[dA][Cya]AIFTNSYRKVLAQLSARKLLQDILNRQQG-NH2), in series [1], the “the potency of bGRF(1-44)NH₂” value stood at 1.34 and the “potency (in words)” value is “high potency”. In addition, the “relative growth hormone areas” value in the series with meal-fed Holstein steers is on record as 307%. Also, in series [2], the amount remaining at 1 h amounted to 95% and the “proteolytic stability in bovine plasma (in words)” value is given as “good stability”.
Take `CC[C@H](C)[C@H](NC(=O)[C@H](C)NC(=O)[C@H](CS(=O)(=O)O)NC(=O)[C@H](C)NC(=O)CCc1ccc(O)cc1)C(=O)N[C@@H](Cc1ccccc1)C(=O)N[C@H](C(=O)N[C@@H](CC(N)=O)C(=O)N[C@@H](CO)C(=O)N[C@@H](Cc1ccc(O)cc1)C(=O)N[C@@H](CCCNC(=N)N)C(=O)N[C@@H](CCCCN)C(=O)N[C@H](C(=O)N[C@@H](CC(C)C)C(=O)N[C@@H](C)C(=O)N[C@@H](CCC(N)=O)C(=O)N[C@@H](CC(C)C)C(=O)N[C@@H](CO)C(=O)N[C@@H](C)C(=O)N[C@@H](CCCNC(=N)N)C(=O)N[C@@H](CCCCN)C(=O)N[C@@H](CC(C)C)C(=O)N[C@@H](CC(C)C)C(=O)N[C@@H](CCC(N)=O)C(=O)N[C@@H](CC(=O)O)C(=O)N[C@H](C(=O)N[C@@H](CC(C)C)C(=O)N[C@@H](CC(N)=O)C(=O)N[C@@H](CCCNC(=N)N)C(=O)N[C@@H](CCC(N)=O)C(=O)N[C@@H](CCC(N)=O)C(=O)NCC(N)=O)[C@@H](C)CC)C(C)C)[C@@H](C)O` [Compound 9, Desamino-Tyr¹, Cya³, Ala¹⁵, Leu²⁷-bGRF(1-32)NH₂] (Desaminotyrosyl-A[Cya]AIFTNSYRKVLAQLSARKLLQDILNRQQG-NH2): the “the potency of bGRF(1-44)NH₂” value in series [1] (setting [4]) is on record as 2.24. The “potency (in words)” value in series [1] is “high potency”. In the series on meal-fed Holstein steers, the “relative growth hormone areas” value worked out at 260%. For the same compound, in series [2], the amount remaining at 1 h came out at 81% and the “proteolytic stability in bovine plasma (in words)” value is “good stability”.
Consider Cya²⁵, Leu²⁷bGRF(1-32)NH₂ [Compound 1], for which the “the potency of bGRF(1-44)NH₂” value in series [1] (setting [3]) was 0.53. In the series with meal-fed Holstein steers (setting [5]), the “serum growth hormone (GH) response, difference from Leu²⁷ bGRF(1-32)NH₂” value is recorded as “No significant differences” and the “area under the GH response curve” value was 100%.
For “YADAIFTNSYRKVLGQLSARKLLQDILNRQQG-NH2 [Leu²⁷ bGRF(1-32)NH₂, reference compound]”, the “serum growth hormone (GH) response, difference from bGRF(1-44)NH₂” value in the series with meal-fed Holstein steers (3nM/100 kg bodyweight, single iv injection, compared with bGRF(1-44)NH₂) is recorded as “No significant differences”. The “area under the GH response curve” value with meal-fed Holstein steers (setting [5]) turned out to be 122%. This compound also came in with a fraction remaining at 1 h in series [2] of 47%.
